Where two headings read alike, the source gives them in different places.
Columns and labels:
[1] = molecular target: T1, shikimate dehydrogenase (SDH) (Helicobacter pylori, UniProt P56119); test: Single enzyme inhibition assay, SDH activity (formation of NADPH, A340); format: biochemical; settings: for IC50: 1.6 mM shikimate, 2 mM NADP, 25°C, pH 8.0
T1 sequence (P56119 1-263): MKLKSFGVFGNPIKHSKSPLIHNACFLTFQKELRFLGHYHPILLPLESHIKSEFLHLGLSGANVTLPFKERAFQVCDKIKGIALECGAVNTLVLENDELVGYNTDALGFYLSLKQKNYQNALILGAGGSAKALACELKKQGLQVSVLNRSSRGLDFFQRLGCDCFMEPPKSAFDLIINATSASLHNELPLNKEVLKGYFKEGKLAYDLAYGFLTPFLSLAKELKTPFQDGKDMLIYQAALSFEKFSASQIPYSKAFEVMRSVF
Description: (§1) The SK activity was measured by coupling the release of ADP from the SK-catalyzed reaction to the oxidation of NADH using pyruvate kinase (EC 2.7.1.40) and lactate dehydrogenase (EC 1.1.1.27) as coupling enzymes. SDH activity was determined by monitoring the formation of NADPH. The initial rate of the reaction was measured by the increase in absorbance at A340 (ε = 6,200 M^−1 cm^−1) in the present of shikimate. The assay was performed at 25°C in a mixture of 100 mM Tris-HCl buffer, pH 8.0.
(§2) Both SK and SDH were used in a final enzyme concentration of 100 nM. For determination of IC50 for each inhibitor, the assay was initiated by the addition of shikimate (1.6 mM) after incubation in a buffer containing cofactor (2 mM ATP for SK or 2 mM NADP for SDH), enzyme, and inhibitor (dissolved in 5% dimethyl sulfoxide). All assays were conducted in a 96-well microplate and analyzed with a spectrophotometer (FLUOstar OPTIMA, BMG LABTECH). A dose-response curve was fitted using the non-linear regression function of GraphPad Prism®.

[2] = molecular target: T2, 3-dehydroquinate synthase (Helicobacter pylori, UniProt P56081); test: 3-dehydroquinate synthase inhibition assay (NADH quantification); format: biochemical; settings: for inhibition of 3-dehydroquinate synthase: 1 mM DAHP, 0.5 mM NAD+
T2 sequence (P56081 1-343): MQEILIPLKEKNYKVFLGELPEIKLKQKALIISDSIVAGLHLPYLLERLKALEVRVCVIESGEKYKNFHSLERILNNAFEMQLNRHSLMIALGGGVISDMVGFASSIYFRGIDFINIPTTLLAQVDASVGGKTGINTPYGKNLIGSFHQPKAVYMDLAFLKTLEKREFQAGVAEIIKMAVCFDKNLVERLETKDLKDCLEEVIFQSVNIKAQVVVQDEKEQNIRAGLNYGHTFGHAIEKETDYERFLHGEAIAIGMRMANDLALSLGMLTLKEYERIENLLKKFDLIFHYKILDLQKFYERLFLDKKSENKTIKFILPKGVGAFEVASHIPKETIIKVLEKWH
Description: (§3) We performed ADP assay providing a direct method to analyze SDH-SK dual enzyme activity. The assay was initiated by addition of the 3-dehydroshikimate (2 mM) after incubating in a reaction mixture containing 2.5 mM ATP, 0.5 mM NADPH, 100 nM SDH, 100 nM SK enzyme, 50 mM KCl, 5 mM MgCl2 and different inhibitors. The reaction was carried out at 25°C in a mixture of 100 mM Tris-HCl buffer, pH 7.5 and terminated at 100°C for 5 mins in the reaction time of initial rate. The amount of ADP was measured by using ADP Colorimetric Assay Kit II (BioVision) according to the manufacturer's instruction. We also performed 3-dehydroquinate synthase inhibition assay. The reaction was comprised of 3-deoxy-D-arabinoheptulosonate 7-phosphate (1 mM) and NAD+ (0.5 mM). The amount of NADH was measured by using NAD+/NADH Quantification Kit (BioVision). All assays were conducted in a 96-well microplate and analyzed with a spectrophotometer (FLUOstar OPTIMA, BMG LABTECH). The dose-response curve was fitted using the non-linear regression function of GraphPad Prism. The IC90 values were computed from the IC50 and Hill slop.

[3] = tested on: dual enzyme (SDH and SK); test: SDH-SK dual enzyme activity ADP assay; format: biochemical, Helicobacter pylori; settings: for dual enzyme dose-response curve compared with SDH and SK curves: 2 mM 3-dehydroshikimate, 100 nM SDH, 100 nM SK; for dual enzyme (SDH and SK) activity curve: at inhibitor concentrations greater than the IC90 value
Description: as §3

[4] = molecular target: shikimate kinase (SK) (Helicobacter pylori, UniProt P56073); test: Single enzyme inhibition assay, SK activity (ADP release coupled to NADH oxidation); format: biochemical; settings: for IC50: 1.6 mM shikimate, 2 mM ATP, 25°C, pH 8.0; for inhibition at 100 µM: Table S4, read-out: SK IC50 (μM), dash = inhibition percentage
Chain of shikimate kinase (SK) (P56073 whole entry): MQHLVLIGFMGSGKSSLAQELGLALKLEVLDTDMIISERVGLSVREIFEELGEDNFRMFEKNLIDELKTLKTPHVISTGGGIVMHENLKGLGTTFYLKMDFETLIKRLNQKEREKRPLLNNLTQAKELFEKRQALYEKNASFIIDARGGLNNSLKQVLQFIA
Description: as §1, §2

[5] = 100 nM enzyme, read-out: SDH IC50
[6] = 100 nM enzyme, read-out: SK IC50

| SMILES | IC50 [1, 5] | inhibition of 3-dehydroquinate synthase [2] | dual enzyme dose-response curve compared with SDH and SK curves [3] | IC50 [4, 6] | inhibition at 100 µM [4] | dual enzyme (SDH and SK) activity curve [3] | further results |
| --- | --- | --- | --- | --- | --- | --- | --- |
| Cc1ccc(S(=O)(=O)CCSc2n[nH]c(=O)n2-c2ccc(OCc3ccccc3)cc2)cc1 [HTS02873] | 4.9 µM | – | – | > 100 µM | < 50% | – | inhibitory effect for SK ([4]; at 100 µM): no inhibitory effect |
| O=C(NNC(=O)C1c2ccccc2Oc2ccccc21)c1cccc([N+](=O)[O-])c1 [RH00037] | 24.8 µM | no inhibitions | – | – | – | – | – |
| O=C(Nc1ccc2c(O)cc(S(=O)(=O)O)cc2c1)Nc1ccc2c(O)cc(S(=O)(=O)O)cc2c1 [NSC45174] | – | – | median effect | – | – | approximately 0 | IC50 ([1]; SDH IC50, 100 nM enzyme): 3.6 µM; IC50 [2]: 7.1 µM; IC50 ([4]; SK IC50, 100 nM enzyme): < 10 µM |

Continued, in another order:

| IC50 [1, 5] | inhibition of 3-dehydroquinate synthase [2] | dual enzyme dose-response curve compared with SDH and SK curves [3] | IC50 [4, 6] | inhibition at 100 µM [4] | SMILES | dual enzyme (SDH and SK) activity curve [3] | further results |
| --- | --- | --- | --- | --- | --- | --- | --- |
| 1.4 µM | no inhibitions | median effect | 4.8 µM | – | Cc1cc(/N=N/c2ccc(/N=N/c3ccc(/N=N/c4ccc(O)c(C(=O)O)c4)cc3)c(S(=O)(=O)O)c2C)c(N)cc1N [NSC45611] | approximately 0 | – |
| – | – | nearly identical profiles | – | – | Nc1ccc2c(O)c(N=Nc3ccc4c(O)cc(S(=O)(=O)O)cc4c3)c(S(=O)(=O)O)cc2c1 [NSC162535, reference compound] | – | – |
| – | – | – | – | < 50% | O=C(Nc1ccc2ncccc2c1)Nc1ccc2ncccc2c1 [NSC71881] | – | inhibition at 100 µM ([1]; at 100 μM, Table S4, read-out: SDH IC50 (μM), dash = inhibition percentage): < 50% |
